According to patent publication US4097471A, “Polypeptides with morphine-like activity” (American Home Products Corporation, priority 1977, dated 1978):
Peptide text beside a SMILES is read from it.

Key:
[1] = tested on: pain threshold (tail-flick latency); test: rat-tail flick method, intracerebroventricular injection; format: in vivo; settings: for Mean Latency ± SEM, Drug / Mean % Change ± SEM: injected into lateral ventricle; for Mean Latency ± SEM, Drug / Mean % Change ± SEM / analgesic effect / pain threshold: rat; for Mean % Change ± SEM: drug minus baseline latency; for analgesic effect / pain threshold: injected into the lateral brain ventricle
Experimental: In this test method, which is a standard test for analgesia, a light beam is focused on the tip of the rat's tail, and the pain threshold of the animal is measured by the latency of the rat to remove his tail from the noxious heat source. When tested by the rat-tail flick method by intracerebroventricular injection, according to the procedure of Belluzzi et al., Nature, 260, 625 (1976), the polypeptides of this invention produced the effects set forth in Table I.
*All drugs were dissolved in […]. of Ringer's solution and injected int
the lateral ventricle through permanently-indwelling cannulae.

opiate receptors = test: binding to opiate receptors in vitro, displacement of 3H-naloxone in rat brain homogenates
analgesia = settings: injection in the brain ventricle in rats; fully reversible by naloxone; cited from earlier work

Row | SMILES | Mean Latency ± SEM, Drug ([1]; dose 10 μg) | Mean % Change ± SEM ([1]; dose 10 μg) [%] | Mean Latency ± SEM, Drug ([1]; dose 100 μg) | Mean % Change ± SEM ([1]; dose 100 μg) [%] | Mean Latency ± SEM, Drug ([1]; dose 200 μg) | Mean % Change ± SEM ([1]; dose 200 μg) [%] | analgesic activity at low dose ([1]; dose as low as 10 μg) | duration of analgesic effect ([1]; dose as low as 10 μg) [h] | analgesic effect / pain threshold ([1]; listed as polypeptide of Formula I) | analgesic effect / pain threshold ([1]; listed as polypeptide of this invention) | binding to opiate receptors in vitro (opiate receptors; in vitro) | displacing 3H-naloxone from binding sites (opiate receptors; rat brain homogenates) | analgesia (analgesia)
1 | CC(C)C[C@H](NC(=O)[C@H](Cc1ccccc1)NC(=O)CNC(=O)CNC(=O)[C@@H](N)Cc1ccc(O)cc1)C(=O)N[C@H](C(=O)N[C@@H](CO)C(=O)N[C@@H](CCC(=O)O)C(=O)N[C@@H](CCCCN)C(=O)N[C@@H](CO)C(=O)N[C@@H](CCC(N)=O)C(=O)N[C@H](C(=O)N1CCC[C@H]1C(=O)N[C@@H](CC(C)C)C(=O)N[C@H](C(=O)N[C@H](C(=O)O)[C@@H](C)O)C(C)C)[C@@H](C)O)[C@@H](C)O [β-LPH 61-76 (Leu^65), L-Tyrosyl-glycyl-glycyl-L-phenylalanyl-L-leucyl-L-threonyl-L-seryl-L-glutamyl-L-lysyl-L-seryl-L-glutaminyl-L-threonyl-L-prolyl-L-leucyl-L-valyl-L-threonine] (H-YGGFLTSEKSQTPLVT-OH) | 4.33 ± 0.05 | 34.32 ± 8.75 | 6.26 ± 0.96 | 86.02 ± 30.79 | 4.16 | 3.04 | active | > 2 | exerts an analgesic effect | produced an increase in pain threshold | weak binding | capable of displacing 3H-naloxone | –
2 | CC(C)C[C@H](NC(=O)[C@H](Cc1ccccc1)NC(=O)CNC(=O)CNC(=O)[C@@H](N)Cc1ccc(O)cc1)C(=O)O [Leucine-Enkephalin, H-Tyr-Gly-Gly-Phe-Leu-OH, reference compound] | – | – | 5.11 ± 0.34 | 31.7 ± 11.5 | – | – | – | – | – | – | – | – | induce a profound analgesia
3 | CSCC[C@H](NC(=O)[C@H](Cc1ccccc1)NC(=O)CNC(=O)CNC(=O)[C@@H](N)Cc1ccc(O)cc1)C(=O)O [Methionine-Enkaphalin, H-Tyr-Gly-Gly-Phe-Met-OH] | – | – | – | – | – | – | – | – | – | – | – | – | induce a profound analgesia
